According to ChEMBL document CHEMBL4364309, “Rigidification Dramatically Improves Inhibitor Selectivity for RAF Kinases” (ACS Med Chem Lett, 2019):

How the values were obtained:
[1] = target: T1, Serine/threonine-protein kinase B-raf (Homo sapiens, UniProt P15056, V600E); test: Inhibition of recombinant His-tagged BRAF V600E mutant (unknown origin) (444-723 residues) expressed in Escherichia coli BL21(DE3)-RIL using MEKK97R as substrate assessed as reduction in phosphorylation incubated for 20 mins by immunoblot assay
[2] = target: RAF proto-oncogene serine/threonine-protein kinase (Homo sapiens) (UniProt P04049); test: Inhibition of CRAF (unknown origin) at 1 uM relative to control
[3] = target: Serine/threonine-protein kinase B-raf (Homo sapiens) (UniProt P15056); test: Inhibition of BRAF (unknown origin) at 1 uM relative to control
[4] = system: A-375; test: Antiproliferative activity at human A375 cells expressing BRAF V600E mutant assessed as reduction in cell viability incubated for 96 hrs by MTT assay; type: functional, cell-based; conditions: A-375, 96 h
[5] = target: T1, Serine/threonine-protein kinase B-raf; test: Inhibition of BRAF V600E in human A375 cells assessed as reduction in ERK phosphorylation incubated for 1 hr by immunoblot analysis; type: cell-based
[6] = target: Protein-tyrosine kinase 6 (Homo sapiens) (UniProt Q13882); test: Inhibition of BRK (unknown origin) at 1 uM relative to control
[7] = system: SK-MEL-5; test: Growth inhibition of human SK-MEL-5 cells harboring BRAF V600E mutant incubated for 48 hrs by sulforhodamine B assay; type: functional
[8] = target: Macrophage colony-stimulating factor 1 receptor (Homo sapiens) (UniProt P07333); test: Inhibition of FMS (unknown origin) at 1 uM relative to control
[9] = system: MDA-MB-435; test: Growth inhibition of human MDA-MB-435 cells harboring BRAF V600E mutant incubated for 48 hrs by sulforhodamine B assay; type: functional
[10] = system: Serine/threonine-protein kinase B-raf (Homo sapiens), P15056 [V600E]; test: Potency index, ratio vemurafenib IC50 to test compound IC50 for Inhibition of recombinant His-tagged BRAF V600E mutant (unknown origin) (444 to 723 residues) expressed in Escherichia coli BL21(DE3)-RIL
[11] = system: Malme-3M; test: Growth inhibition of human MALME-3M cells harboring BRAF V600E mutant incubated for 48 hrs by sulforhodamine B assay; type: functional

Sequence of Serine/threonine-protein kinase B-raf (Homo sapiens) (P15056 whole entry): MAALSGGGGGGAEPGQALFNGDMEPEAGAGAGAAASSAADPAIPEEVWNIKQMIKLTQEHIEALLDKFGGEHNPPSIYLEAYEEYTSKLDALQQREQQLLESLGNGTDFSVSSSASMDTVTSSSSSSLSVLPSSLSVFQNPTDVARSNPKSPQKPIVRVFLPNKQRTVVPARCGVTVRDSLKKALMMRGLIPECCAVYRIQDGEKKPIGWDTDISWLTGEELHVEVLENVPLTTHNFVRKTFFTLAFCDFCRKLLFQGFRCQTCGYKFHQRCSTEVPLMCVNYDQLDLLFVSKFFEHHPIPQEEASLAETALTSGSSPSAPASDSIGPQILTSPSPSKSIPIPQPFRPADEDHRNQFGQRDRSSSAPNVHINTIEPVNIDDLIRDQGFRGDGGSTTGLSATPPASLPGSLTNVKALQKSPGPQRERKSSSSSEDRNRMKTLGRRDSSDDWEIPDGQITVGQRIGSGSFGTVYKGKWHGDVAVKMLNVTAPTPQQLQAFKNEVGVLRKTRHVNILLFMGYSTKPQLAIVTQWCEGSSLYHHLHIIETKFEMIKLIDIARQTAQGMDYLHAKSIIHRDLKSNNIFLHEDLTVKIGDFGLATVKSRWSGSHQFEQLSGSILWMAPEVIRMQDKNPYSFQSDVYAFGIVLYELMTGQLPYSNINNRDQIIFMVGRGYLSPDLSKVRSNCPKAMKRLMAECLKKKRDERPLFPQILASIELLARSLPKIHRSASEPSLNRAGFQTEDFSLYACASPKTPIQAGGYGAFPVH
T1 sequence (P15056 2-766 V600E limits assumed): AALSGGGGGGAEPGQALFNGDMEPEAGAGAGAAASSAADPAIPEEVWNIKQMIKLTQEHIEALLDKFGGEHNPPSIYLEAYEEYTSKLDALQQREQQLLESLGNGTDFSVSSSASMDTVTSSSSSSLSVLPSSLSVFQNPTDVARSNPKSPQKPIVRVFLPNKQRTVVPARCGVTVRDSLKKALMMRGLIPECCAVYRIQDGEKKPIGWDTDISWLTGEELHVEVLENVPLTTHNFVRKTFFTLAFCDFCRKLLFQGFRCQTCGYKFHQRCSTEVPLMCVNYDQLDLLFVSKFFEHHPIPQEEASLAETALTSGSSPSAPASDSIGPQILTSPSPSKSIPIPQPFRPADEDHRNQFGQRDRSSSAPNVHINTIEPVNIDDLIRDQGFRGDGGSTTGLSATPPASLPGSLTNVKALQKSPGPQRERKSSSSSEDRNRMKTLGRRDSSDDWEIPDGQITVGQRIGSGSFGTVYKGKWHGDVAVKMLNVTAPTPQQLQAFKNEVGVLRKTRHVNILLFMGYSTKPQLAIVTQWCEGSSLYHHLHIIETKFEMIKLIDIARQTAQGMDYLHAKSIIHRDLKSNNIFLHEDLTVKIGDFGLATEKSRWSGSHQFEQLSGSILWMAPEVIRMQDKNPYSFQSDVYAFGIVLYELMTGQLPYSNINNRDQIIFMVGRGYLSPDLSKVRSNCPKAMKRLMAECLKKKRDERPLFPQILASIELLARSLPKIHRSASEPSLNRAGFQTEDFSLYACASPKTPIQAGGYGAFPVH
Sequence of RAF proto-oncogene serine/threonine-protein kinase (Homo sapiens) (P04049 whole entry): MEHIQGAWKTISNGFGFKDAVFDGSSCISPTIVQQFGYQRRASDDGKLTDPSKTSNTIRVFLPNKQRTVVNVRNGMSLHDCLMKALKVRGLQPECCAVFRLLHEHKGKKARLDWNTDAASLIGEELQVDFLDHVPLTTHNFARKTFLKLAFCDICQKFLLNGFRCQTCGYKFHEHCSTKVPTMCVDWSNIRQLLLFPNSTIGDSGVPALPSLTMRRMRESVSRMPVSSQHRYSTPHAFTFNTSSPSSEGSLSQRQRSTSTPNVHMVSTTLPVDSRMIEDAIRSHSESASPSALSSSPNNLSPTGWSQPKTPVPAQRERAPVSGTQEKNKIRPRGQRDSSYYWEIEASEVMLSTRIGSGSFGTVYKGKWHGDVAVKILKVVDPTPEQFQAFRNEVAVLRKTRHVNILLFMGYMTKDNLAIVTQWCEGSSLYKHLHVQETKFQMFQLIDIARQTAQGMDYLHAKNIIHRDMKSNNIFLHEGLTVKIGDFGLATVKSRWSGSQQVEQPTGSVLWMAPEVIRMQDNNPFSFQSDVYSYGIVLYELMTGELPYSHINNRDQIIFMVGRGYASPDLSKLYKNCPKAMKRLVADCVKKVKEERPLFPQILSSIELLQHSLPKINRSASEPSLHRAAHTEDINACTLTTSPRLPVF
Sequence of Protein-tyrosine kinase 6 (Homo sapiens) (Q13882 whole entry, looked up): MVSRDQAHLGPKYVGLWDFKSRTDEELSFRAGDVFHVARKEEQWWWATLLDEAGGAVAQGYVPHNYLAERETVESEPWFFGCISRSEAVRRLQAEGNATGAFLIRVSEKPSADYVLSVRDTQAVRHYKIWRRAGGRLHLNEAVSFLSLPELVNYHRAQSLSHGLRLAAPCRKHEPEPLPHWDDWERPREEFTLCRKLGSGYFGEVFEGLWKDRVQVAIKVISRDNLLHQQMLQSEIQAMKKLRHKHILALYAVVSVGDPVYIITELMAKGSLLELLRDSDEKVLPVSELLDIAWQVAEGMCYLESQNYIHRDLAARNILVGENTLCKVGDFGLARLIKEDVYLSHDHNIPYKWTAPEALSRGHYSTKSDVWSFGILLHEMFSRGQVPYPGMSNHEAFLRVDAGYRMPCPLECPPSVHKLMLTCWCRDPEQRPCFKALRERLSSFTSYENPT
Sequence of Macrophage colony-stimulating factor 1 receptor (Homo sapiens) (P07333 whole entry): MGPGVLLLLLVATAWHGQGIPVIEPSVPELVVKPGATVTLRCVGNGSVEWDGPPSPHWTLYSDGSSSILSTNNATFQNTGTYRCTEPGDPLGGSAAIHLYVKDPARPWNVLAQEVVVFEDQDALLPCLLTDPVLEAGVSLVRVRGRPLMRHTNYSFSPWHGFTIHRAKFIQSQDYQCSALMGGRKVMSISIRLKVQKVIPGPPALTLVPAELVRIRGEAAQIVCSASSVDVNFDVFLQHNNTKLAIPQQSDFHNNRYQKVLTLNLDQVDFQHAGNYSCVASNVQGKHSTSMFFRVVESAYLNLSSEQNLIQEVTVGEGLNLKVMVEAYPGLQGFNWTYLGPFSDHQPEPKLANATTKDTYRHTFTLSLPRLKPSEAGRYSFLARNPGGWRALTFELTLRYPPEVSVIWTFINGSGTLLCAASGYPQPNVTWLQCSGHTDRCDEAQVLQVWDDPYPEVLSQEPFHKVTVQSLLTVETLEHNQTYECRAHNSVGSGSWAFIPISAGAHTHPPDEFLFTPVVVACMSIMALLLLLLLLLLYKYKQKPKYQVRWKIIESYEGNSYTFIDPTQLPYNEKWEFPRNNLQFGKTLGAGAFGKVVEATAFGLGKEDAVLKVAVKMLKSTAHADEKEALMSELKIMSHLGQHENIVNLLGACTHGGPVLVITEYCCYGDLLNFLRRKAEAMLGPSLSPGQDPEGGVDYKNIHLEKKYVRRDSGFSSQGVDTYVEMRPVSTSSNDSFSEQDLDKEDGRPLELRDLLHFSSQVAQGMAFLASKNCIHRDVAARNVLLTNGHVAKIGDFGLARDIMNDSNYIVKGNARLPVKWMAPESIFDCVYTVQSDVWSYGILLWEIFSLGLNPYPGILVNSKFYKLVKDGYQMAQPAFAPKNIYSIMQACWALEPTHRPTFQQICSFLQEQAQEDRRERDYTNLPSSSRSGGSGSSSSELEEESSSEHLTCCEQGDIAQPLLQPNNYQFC
Sequence of Serine/threonine-protein kinase B-raf (Homo sapiens), P15056 [V600E] (P15056 whole entry V600E, the tested form may be a part): as the sequence (P15056 whole entry) above, with V600E counted along it

Compound | IC50 [1] [nM] | IC50 [4] [nM] | other results
Cc1ccc(Nc2nccc3c(C#Cc4nn(C(C)C)c5ncnc(N)c45)cccc23)cc1C(F)(F)F | > 300 | – | –
CC(C)n1nc(C#Cc2cccc3c(Nc4cccc(C(F)(F)F)c4)ncnc23)c2c(N)ncnc21 | > 300 | – | –
CC(C)n1nc(C#Cc2cccc3c(Nc4cccc(C(F)(F)F)c4)nccc23)c2c(N)ncnc21 | 140 | > 10000 | inhibition [2]: > 85%; inhibition [3]: > 85%
CCCS(=O)(=O)Nc1ccc(F)c(C(=O)c2c[nH]c3ncc(-c4ccc(Cl)cc4)cc23)c1F | – | – | inhibition [2]: > 85%; inhibition [3]: > 85%
Cc1ccc2c(Nc3cccc(C(F)(F)F)c3)nccc2c1C#Cc1nn(C(C)C)c2ncnc(N)c12 | 21 | 869 | –
Cc1cn(-c2cc(Nc3nccc4c(C#Cc5nn(C(C)C)c6ncnc(N)c56)cccc34)cc(C(F)(F)F)c2)cn1 | > 300 | – | –
CC(C)n1nc(C#Cc2cccc3c(Nc4cccc(C(F)(F)F)c4)cccc23)c2c(N)ncnc21 | > 300 | – | –
CC(C)n1nc(C#Cc2cccc3c(Nc4ccc(Cl)c(C(F)(F)F)c4)nccc23)c2c(N)ncnc21 | > 300 | – | –
CCCn1nc(C#Cc2cccc3c(Nc4cccc(C(F)(F)F)c4)nccc23)c2c(N)ncnc21 | > 300 | – | –
CC(C)n1nc(C#Cc2cccc3c(Oc4cccc(C(F)(F)F)c4)nccc23)c2c(N)ncnc21 | > 300 | – | –
CCn1nc(C#Cc2c(C)ccc3c(Nc4ccc(Cl)cc4)nccc23)c2c(N)ncnc21 | 8 | 417 | IC50 [5]: 420 nM; inhibition [2]: > 85%; inhibition [6]: > 85%; inhibition [3]: > 85%; Activity [7]: Dose-dependent effect; GI [7]: 6.6 µM; inhibition [8]: > 85%; Activity [9]: Dose-dependent effect; GI [9]: 4.6 µM; Ratio IC50 [10]: 2; Activity [11]: Dose-dependent effect; GI [11]: 7.1 µM
CCn1nc(C#Cc2cccc3c(Nc4cccc(C(F)(F)F)c4)nccc23)c2c(N)ncnc21 | 41 | > 10000 | –
CC(C)n1nc(C#Cc2cccc3c(Nc4ccc(Cl)cc4)nccc23)c2c(N)ncnc21 | 29 | > 10000 | –
